Holding throughout (type): functional, cell-based
Holding throughout (parameters): scale not given: the % may be the effect or the level left

The target in series [1] is T1, OCT1 (Solute carrier family 22 member 1) (Homo sapiens, UniProt O15245).
T1 sequence (O15245 whole entry): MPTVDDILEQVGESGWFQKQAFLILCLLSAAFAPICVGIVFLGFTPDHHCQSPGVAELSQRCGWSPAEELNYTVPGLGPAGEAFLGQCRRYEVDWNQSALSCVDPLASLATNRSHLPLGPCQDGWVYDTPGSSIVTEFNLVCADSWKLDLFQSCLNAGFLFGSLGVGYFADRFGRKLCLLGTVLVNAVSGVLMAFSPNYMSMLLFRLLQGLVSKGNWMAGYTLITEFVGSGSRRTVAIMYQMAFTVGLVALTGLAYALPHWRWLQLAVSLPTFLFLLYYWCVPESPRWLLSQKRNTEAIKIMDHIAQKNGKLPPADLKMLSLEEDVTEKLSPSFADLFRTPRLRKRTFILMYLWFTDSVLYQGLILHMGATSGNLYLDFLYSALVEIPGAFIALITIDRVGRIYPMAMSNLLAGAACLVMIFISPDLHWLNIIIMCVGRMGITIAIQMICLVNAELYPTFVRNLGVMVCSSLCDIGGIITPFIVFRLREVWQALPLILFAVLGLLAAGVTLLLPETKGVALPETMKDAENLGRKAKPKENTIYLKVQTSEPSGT
In words: TP_TRANSPORTER: inhibition of TEA uptake (TEA: 5 uM, PGE2: 1000 uM) in OCT1-expressing S2 cells. The following applies: probe TEA, read-out: Activity.

Series [2] addresses T2, Organic anion transporter 3 (Homo sapiens, UniProt Q8TCC7).
T2 sequence (Q8TCC7 whole entry): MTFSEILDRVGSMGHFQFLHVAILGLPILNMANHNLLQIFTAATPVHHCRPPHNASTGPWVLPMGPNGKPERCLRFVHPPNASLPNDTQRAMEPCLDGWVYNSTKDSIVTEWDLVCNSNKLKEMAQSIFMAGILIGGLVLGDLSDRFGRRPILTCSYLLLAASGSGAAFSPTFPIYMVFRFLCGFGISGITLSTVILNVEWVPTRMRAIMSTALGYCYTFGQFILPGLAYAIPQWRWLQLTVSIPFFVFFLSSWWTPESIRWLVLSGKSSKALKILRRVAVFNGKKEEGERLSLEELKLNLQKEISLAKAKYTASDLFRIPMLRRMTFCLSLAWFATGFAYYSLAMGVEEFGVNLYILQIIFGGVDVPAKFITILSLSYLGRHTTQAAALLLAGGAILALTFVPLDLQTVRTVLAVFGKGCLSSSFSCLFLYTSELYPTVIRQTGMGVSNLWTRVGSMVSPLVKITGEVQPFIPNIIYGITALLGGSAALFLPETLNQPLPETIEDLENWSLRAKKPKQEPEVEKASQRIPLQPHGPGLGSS
In words: TP_TRANSPORTER: inhibition of ES uptake (ES: 0.05 uM, PGE2: 30 uM) in OAT3-expressing S2 cells. As to conditions: s2, 30 µM.

In series [3] the target is T3, OCT2 (Solute carrier family 22 member 2) (Homo sapiens, UniProt O15244).
T3 sequence (O15244 whole entry): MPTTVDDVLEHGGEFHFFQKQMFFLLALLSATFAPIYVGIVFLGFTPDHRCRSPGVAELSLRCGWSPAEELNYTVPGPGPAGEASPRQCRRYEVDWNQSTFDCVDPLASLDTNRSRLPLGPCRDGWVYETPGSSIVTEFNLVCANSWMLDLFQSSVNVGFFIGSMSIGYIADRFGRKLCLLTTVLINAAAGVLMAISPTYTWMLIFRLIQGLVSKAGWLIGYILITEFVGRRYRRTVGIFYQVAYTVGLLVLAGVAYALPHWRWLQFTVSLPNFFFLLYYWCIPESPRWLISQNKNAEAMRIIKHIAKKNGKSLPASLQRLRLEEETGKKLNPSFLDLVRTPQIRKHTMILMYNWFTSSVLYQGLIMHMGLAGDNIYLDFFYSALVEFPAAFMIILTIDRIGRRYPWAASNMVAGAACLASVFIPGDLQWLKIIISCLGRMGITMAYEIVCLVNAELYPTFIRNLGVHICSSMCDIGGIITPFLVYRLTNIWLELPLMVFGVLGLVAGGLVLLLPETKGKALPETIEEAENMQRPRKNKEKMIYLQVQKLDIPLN
The series can be described thus: TP_TRANSPORTER: inhibition of TEA uptake (TEA: 5 uM, PGE2: 1000 uM) in OCT2-expressing S2 cells. The following applies: mouse, probe TEA, read-out: Activity.

Series [4] deals with T4, OAT2 (Solute carrier family 22 member 7) (Homo sapiens, UniProt Q9Y694).
T4 sequence (Q9Y694 whole entry): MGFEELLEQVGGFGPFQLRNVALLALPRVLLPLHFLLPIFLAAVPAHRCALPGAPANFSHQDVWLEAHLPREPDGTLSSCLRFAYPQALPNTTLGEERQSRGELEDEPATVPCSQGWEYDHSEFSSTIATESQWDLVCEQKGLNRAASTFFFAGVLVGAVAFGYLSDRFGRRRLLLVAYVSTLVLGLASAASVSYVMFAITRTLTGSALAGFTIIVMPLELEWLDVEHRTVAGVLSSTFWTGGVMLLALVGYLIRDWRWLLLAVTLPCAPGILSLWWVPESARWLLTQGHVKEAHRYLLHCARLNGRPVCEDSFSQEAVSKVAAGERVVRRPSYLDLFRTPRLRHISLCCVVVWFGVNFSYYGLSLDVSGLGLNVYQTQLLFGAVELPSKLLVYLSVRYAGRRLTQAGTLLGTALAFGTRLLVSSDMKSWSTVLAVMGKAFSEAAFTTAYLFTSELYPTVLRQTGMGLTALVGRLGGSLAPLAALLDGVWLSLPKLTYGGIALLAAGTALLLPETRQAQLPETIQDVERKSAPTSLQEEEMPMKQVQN
In words: TP_TRANSPORTER: inhibition of PGF2alpha uptake (PGF2alpha: 0.05 uM, PGE2: 30 uM) in OAT2-expressing S2 cells. As to conditions: mouse, probe PGF2alpha, read-out: Activity.

Series [5] addresses T5, OAT4 (Solute carrier family 22 member 11) (Homo sapiens, UniProt Q9NSA0).
T5 sequence (Q9NSA0 whole entry): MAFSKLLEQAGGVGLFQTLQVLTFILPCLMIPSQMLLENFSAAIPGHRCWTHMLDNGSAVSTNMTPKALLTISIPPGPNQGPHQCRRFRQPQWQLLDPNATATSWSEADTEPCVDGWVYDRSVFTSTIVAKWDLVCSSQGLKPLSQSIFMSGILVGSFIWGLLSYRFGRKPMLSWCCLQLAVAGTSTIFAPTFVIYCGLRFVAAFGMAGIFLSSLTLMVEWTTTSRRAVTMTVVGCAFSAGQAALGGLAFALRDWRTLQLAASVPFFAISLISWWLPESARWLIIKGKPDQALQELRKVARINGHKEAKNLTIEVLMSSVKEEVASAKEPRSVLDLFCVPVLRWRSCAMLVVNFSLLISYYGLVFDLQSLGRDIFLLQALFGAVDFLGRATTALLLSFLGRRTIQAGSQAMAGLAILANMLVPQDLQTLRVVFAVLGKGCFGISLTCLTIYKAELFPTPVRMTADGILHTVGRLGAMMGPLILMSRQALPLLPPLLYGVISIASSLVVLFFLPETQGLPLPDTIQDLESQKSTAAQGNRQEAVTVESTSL
In words: TP_TRANSPORTER: inhibition of ES uptake (ES: 0.05 uM, PGE2: 30 uM) in OAT4-expressing S2 cells. As to conditions: probe ES, read-out: Activity.

The target in series [6] is T3, OCT2 (Solute carrier family 22 member 2). In words: TP_TRANSPORTER: inhibition of TEA uptake (TEA: 5 uM, PGF2alpha: 1000 uM) in OCT2-expressing S2 cells. As to conditions: mouse, probe TEA, read-out: Activity.
In series [7] the target is T6, Solute carrier family 22 member 1 (Homo sapiens, UniProt O15245).
T6 sequence (O15245 whole entry): T1 sequence (O15245 whole entry)
The series can be described thus: TP_TRANSPORTER: inhibition of TEA uptake (TEA: 5 uM, PGF2alpha: 1000 uM) in OCT1-expressing S2 cells. The following applies: mouse, s2, 1000 µM.

Series [8] addresses T7, OAT1 (Solute carrier family 22 member 6) (Homo sapiens, UniProt Q4U2R8).
T7 sequence (Q4U2R8 whole entry): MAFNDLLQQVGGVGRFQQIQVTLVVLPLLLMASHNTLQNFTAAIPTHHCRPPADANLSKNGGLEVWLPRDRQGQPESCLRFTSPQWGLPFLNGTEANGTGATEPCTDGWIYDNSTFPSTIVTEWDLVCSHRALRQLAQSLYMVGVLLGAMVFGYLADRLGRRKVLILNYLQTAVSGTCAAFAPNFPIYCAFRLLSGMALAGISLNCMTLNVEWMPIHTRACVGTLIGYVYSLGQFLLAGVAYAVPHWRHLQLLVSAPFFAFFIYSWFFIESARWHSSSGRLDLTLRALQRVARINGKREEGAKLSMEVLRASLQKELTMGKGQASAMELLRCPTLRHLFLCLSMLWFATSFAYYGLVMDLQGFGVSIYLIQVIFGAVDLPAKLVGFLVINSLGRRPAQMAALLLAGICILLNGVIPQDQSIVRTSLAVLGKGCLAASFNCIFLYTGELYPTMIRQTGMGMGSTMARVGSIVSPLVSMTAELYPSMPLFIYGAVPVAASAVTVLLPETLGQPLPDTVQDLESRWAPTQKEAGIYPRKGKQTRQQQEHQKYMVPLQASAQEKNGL
The series can be described thus: TP_TRANSPORTER: inhibition of PAH uptake (PAH: 5 uM, PGF2alpha: 1000 uM) in OAT1-expressing S2 cells. As to conditions: mouse, probe PAH, read-out: Activity.

Series [9] has as its target T5, OAT4 (Solute carrier family 22 member 11). The series can be described thus: TP_TRANSPORTER: inhibition of ES uptake (ES: 0.05 uM, PGF2alpha: 30 uM) in OAT4-expressing S2 cells. The following applies: mouse, probe ES, read-out: Activity.
The target of series [10] is T8, OAT3 (Organic anion transporter 3) (Homo sapiens, UniProt Q8TCC7).
T8 sequence (Q8TCC7 whole entry): T2 sequence (Q8TCC7 whole entry)
In words: TP_TRANSPORTER: inhibition of ES uptake (ES: 0.05 uM, PGF2alpha: 30 uM) in OAT3-expressing S2 cells. The following applies: probe ES, read-out: Activity.

The values that follow come from ChEMBL document CHEMBL2073850, “Human organic anion transporters and human organic cation transporters mediate renal transport of prostaglandins” (J Pharmacol Exp Ther, 2002).

For `CCCCC[C@H](O)/C=C/[C@H]1[C@H](O)CC(=O)[C@@H]1C/C=C\CCCC(=O)O` [DINOPROSTONE], the activity at 1000 µM in [1] is 31.4%; in [3], 75.6%. The Activity in series [2] was 21.8%. The activity at 30 µM in [4] amounted to 21.2%; in [5] it was 57%.

Regarding `CCCCC[C@H](O)/C=C/[C@@H]1[C@@H](C/C=C\CCCC(=O)O)[C@@H](O)C[C@H]1O` [DINOPROST], the activity at 1000 µM in series [6] was 70.7%; in [8] it was 17.7%. Moreover, the Activity in series [7] came to 68.9%. The activity at 30 µM is 40.8% in [9] and 26.8% in [10].
